ChEMBL document CHEMBL1141820, “Cytotoxic polyacetylenes from the marine sponge Petrosia sp” (1999)
≈ marks a conversion by molar mass, not a printed value.

Tests used:
Assay type in all cases: functional
Settings in all cases: read-out: ED50 (the source's name)
A549 = experiment: Cytotoxicity against human A549 cells
HCT-15 = experiment: Cytotoxicity against human HCT-15 cells
SK-OV-3 = experiment: Cytotoxicity against human SKOV3 cells
XF498 = experiment: Cytotoxicity against human XF498 cells
SK-MEL-2 = experiment: Cytotoxicity against human SK-MEL-2 cells

SMILES | EC50 (A549) [µg/mL] | EC50 (HCT-15) [µg/mL] | EC50 (SK-OV-3) [µg/mL] | EC50 (XF498) [µg/mL] | EC50 (SK-MEL-2) [µg/mL]
COc1cccc2c1C(=O)c1c(O)c3c(c(O)c1C2=O)C[C@@](O)(C(=O)CO)C[C@@H]3O[C@H]1C[C@H](N)[C@H](O)[C@H](C)O1 [DOXORUBICIN] | 0.1 (≈ 0.184 µM) | 0.9 (≈ 1.66 µM) | 0.2 (≈ 0.368 µM) | 0.2 (≈ 0.368 µM) | 0.2 (≈ 0.368 µM)
C#C/C=C/[C@@H](O)CCCCCCCCC/C=C/CC#CCCCCCC/C=C/[C@H](O)C#C [DIDEOXYPETROSYNOL E] | 1.3 (≈ 2.98 µM) | 0.8 (≈ 1.83 µM) | 0.1 (≈ 0.229 µM) | 0.6 (≈ 1.37 µM) | 0.1 (≈ 0.229 µM)
C#C/C=C\CCCCCCCCCCCCCC/C=C/CCCC/C=C/CC/C=C/C#C[C@@H](O)C#CCCCCCC/C=C/[C@H](O)C#C [PETROTETRAYNDIOL A] | 1.6 (≈ 2.45 µM) | 1 (≈ 1.53 µM) | 0.5 (≈ 0.766 µM) | 1.7 (≈ 2.6 µM) | 0.9 (≈ 1.38 µM)
C#CC(O)/C=C/CCCCCCC#CC/C=C/CCCCCCCCC/C=C/C(O)C#C (stereo not given) | 1.4 (≈ 3.21 µM) | 1.2 (≈ 2.75 µM) | 0.1 (≈ 0.229 µM) | 1.2 (≈ 2.75 µM) | 0.2 (≈ 0.458 µM)
C#C/C=C\CCCCCCCCCCCCCC/C=C/CCCC/C=C/CCCCC#C[C@@H](O)C#CCCCCCCCC[C@H](O)C#C [PETROTETRAYNDIOL B] | 1.7 (≈ 2.59 µM) | 3.7 (≈ 5.63 µM) | 2.2 (≈ 3.35 µM) | > 3 | 1.9 (≈ 2.89 µM)
C#C/C=C\CCCCCCCCCCCCCC/C=C/CCCC/C=C/CCCCC#C[C@@H](O)C#CCCCCCC/C=C/[C@H](O)C#C | 1.1 (≈ 1.68 µM) | 1 (≈ 1.53 µM) | 0.6 (≈ 0.916 µM) | 1.7 (≈ 2.6 µM) | 1.1 (≈ 1.68 µM)
C#C[C@@H](O)/C=C/CCCCCCC#CC/C=C/C/C=C/CCCCCCCC[C@H](O)C#C [DIDEOXYPETROSYNOL F] | > 3 | > 3 | > 3 | > 3 | > 3
